Results taken from PubChem BioAssay (NCI).
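GI50 = concentration required for 50% inhibition of growth. TGI: concentration producing complete growth inhibition.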

Columns and labels:
Test in all cases: NCI tumour cell line growth inhibition, 384-well format
MDA-MB-231 breast = tested on: MDA-MB-231 breast
U251 glioblastoma = tested on: U251 glioblastoma
SK-MEL-2 melanoma = tested on: SK-MEL-2 melanoma
NCI-H322M lung = tested on: NCI-H322M lung
MDA-MB-435 melanoma = tested on: MDA-MB-435 melanoma
UACC-62 melanoma = tested on: UACC-62 melanoma
TK-10 renal = tested on: TK-10 renal
T-47D breast = tested on: T-47D breast
RXF 393 renal = tested on: RXF 393 renal
SF-539 CNS = tested on: SF-539 CNS
BT-549 breast = tested on: BT-549 breast
A498 renal = tested on: A498 renal
MALME-3M melanoma = tested on: MALME-3M melanoma
M14 melanoma = tested on: M14 melanoma
OVCAR-5 ovarian = tested on: OVCAR-5 ovarian
NCI-H23 lung = tested on: NCI-H23 lung
COLO 205 colon = tested on: COLO 205 colon
UO-31 renal = tested on: UO-31 renal
HS 578T breast = tested on: HS 578T breast
SK-MEL-5 melanoma = tested on: SK-MEL-5 melanoma
HOP-92 NSCLC = tested on: HOP-92 NSCLC
CAKI-1 renal = tested on: CAKI-1 renal
MDA-MB-468 breast = tested on: MDA-MB-468 breast
SN12C renal = tested on: SN12C renal
OVCAR-8 ovarian = tested on: OVCAR-8 ovarian
LOX IMVI melanoma = tested on: LOX IMVI melanoma
NCI-H522 lung = tested on: NCI-H522 lung
SW-620 colon = tested on: SW-620 colon
CCRF-CEM leukemia = tested on: CCRF-CEM leukemia
NCI/ADR-RES ovarian = tested on: NCI/ADR-RES ovarian
ACHN renal = tested on: ACHN renal
HCC-2998 colon = tested on: HCC-2998 colon
SF-268 CNS = tested on: SF-268 CNS
RPMI-8226 leukemia = tested on: RPMI-8226 leukemia
KM12 colon = tested on: KM12 colon
NCI-H460 NSCLC = tested on: NCI-H460 NSCLC
UACC-257 melanoma = tested on: UACC-257 melanoma
A549 NSCLC = tested on: A549 NSCLC
EKVX NSCLC = tested on: EKVX NSCLC
PC-3 prostate = tested on: PC-3 prostate
SNB-75 CNS = tested on: SNB-75 CNS
OVCAR-3 ovarian = tested on: OVCAR-3 ovarian
SK-MEL-28 melanoma = tested on: SK-MEL-28 melanoma
HT29 colon = tested on: HT29 colon
HL-60(TB) leukemia = tested on: HL-60(TB) leukemia
HOP-62 NSCLC = tested on: HOP-62 NSCLC
OVCAR-4 ovarian = tested on: OVCAR-4 ovarian
HCT-15 colon = tested on: HCT-15 colon
HCT-116 colon = tested on: HCT-116 colon
NCI-H226 lung = tested on: NCI-H226 lung
IGROV1 ovarian = tested on: IGROV1 ovarian
SK-OV-3 ovarian = tested on: SK-OV-3 ovarian
786-0 renal = tested on: 786-0 renal
SF-295 CNS = tested on: SF-295 CNS
DU-145 prostate = tested on: DU-145 prostate
MOLT-4 leukemia = tested on: MOLT-4 leukemia
SNB-19 CNS = tested on: SNB-19 CNS
SR leukemia = tested on: SR leukemia
K-562 leukemia = tested on: K-562 leukemia
MCF7 breast = tested on: MCF7 breast

For Cn1cc(-c2ccc(-c3ccc(C4=NC5(CC5)C(=O)N4C[C@@H]4CCN(C(=O)C5CC5)C4)cc3)cc2)cn1, the GI50 (MDA-MB-231 breast) was 12.3 µM, the TGI (MDA-MB-231 breast) was 56.1 µM and the GI50 (U251 glioblastoma) was 10.2 µM. It also gave a TGI (U251 glioblastoma) of 38.1 µM, a GI50 (SK-MEL-2 melanoma) of 21.9 µM and a TGI (SK-MEL-2 melanoma) of 41.8 µM. The GI50 (NCI-H322M lung) was 20 µM, the TGI (NCI-H322M lung) was 75.5 µM and the GI50 (MDA-MB-435 melanoma) was 16.1 µM. It also gave a TGI (MDA-MB-435 melanoma) of 41.4 µM, a GI50 (UACC-62 melanoma) of 8.91 µM and a TGI (UACC-62 melanoma) of 22.5 µM. It also gave a GI50 (TK-10 renal) of 27.5 µM, a TGI (TK-10 renal) greater than 100 µM and a GI50 (T-47D breast) of 11.9 µM. It also gave a TGI (T-47D breast) of 43.9 µM, a GI50 (RXF 393 renal) of 14.4 µM and a TGI (RXF 393 renal) of 40.7 µM. It also gave a GI50 (SF-539 CNS) of 13.7 µM, a TGI (SF-539 CNS) greater than 56.4 µM and a GI50 (BT-549 breast) of 0.827 µM. For the same compound, the TGI (BT-549 breast) was 30.1 µM, the GI50 (A498 renal) was 17.6 µM and the TGI (A498 renal) was greater than 56.1 µM. It also gave a GI50 (MALME-3M melanoma) of 23 µM, a TGI (MALME-3M melanoma) of 65.1 µM and a GI50 (M14 melanoma) of 24.7 µM. It also gave a TGI (M14 melanoma) greater than 79.5 µM, a GI50 (OVCAR-5 ovarian) of 23.4 µM and a TGI (OVCAR-5 ovarian) greater than 100 µM. For the same compound, the GI50 (NCI-H23 lung) was 14.9 µM, the TGI (NCI-H23 lung) was 37.7 µM and the GI50 (COLO 205 colon) was 25.7 µM. It also gave a TGI (COLO 205 colon) greater than 100 µM, a GI50 (UO-31 renal) of 1.06 µM and a TGI (UO-31 renal) of 2.43 µM. It also gave a GI50 (HS 578T breast) of 10.5 µM, a TGI (HS 578T breast) of 39.1 µM and a GI50 (SK-MEL-5 melanoma) of 15.5 µM. The TGI (SK-MEL-5 melanoma) was 37 µM, the GI50 (HOP-92 NSCLC) was 21.2 µM and the TGI (HOP-92 NSCLC) was 59.1 µM. The GI50 (CAKI-1 renal) was 1.99 µM, the GI50 (MDA-MB-468 breast) was 15.8 µM and the TGI (MDA-MB-468 breast) was 38.4 µM. For the same compound, the GI50 (SN12C renal) was 17.1 µM, the TGI (SN12C renal) was 83.8 µM and the GI50 (OVCAR-8 ovarian) was 13.4 µM. It also gave a TGI (OVCAR-8 ovarian) of 41.6 µM, a GI50 (LOX IMVI melanoma) of 2.48 µM and a TGI (LOX IMVI melanoma) of 14 µM. It also gave a GI50 (NCI-H522 lung) of 12.6 µM, a TGI (NCI-H522 lung) of 29.6 µM and a GI50 (SW-620 colon) of 19.4 µM. The TGI (SW-620 colon) was greater than 67.9 µM, the GI50 (CCRF-CEM leukemia) was 11.7 µM and the TGI (CCRF-CEM leukemia) was 24.3 µM. The GI50 (NCI/ADR-RES ovarian) was 14.2 µM, the TGI (NCI/ADR-RES ovarian) was 36.2 µM and the GI50 (ACHN renal) was 18.7 µM. For the same compound, the TGI (ACHN renal) was greater than 90.1 µM, the GI50 (HCC-2998 colon) was 23.7 µM and the TGI (HCC-2998 colon) was greater than 79.9 µM. The GI50 (SF-268 CNS) was 18.4 µM, the TGI (SF-268 CNS) was greater than 88.4 µM and the TGI (RPMI-8226 leukemia) was 9.91 µM. For the same compound, the GI50 (KM12 colon) was 6.95 µM, the TGI (KM12 colon) was greater than 100 µM and the GI50 (NCI-H460 NSCLC) was 1.21 µM. For the same compound, the TGI (NCI-H460 NSCLC) was 2.97 µM, the GI50 (UACC-257 melanoma) was 38.4 µM and the TGI (UACC-257 melanoma) was greater than 74.7 µM. It also gave a GI50 (A549 NSCLC) of 20.2 µM, a TGI (A549 NSCLC) greater than 100 µM and a GI50 (EKVX NSCLC) of 33.3 µM. For the same compound, the TGI (EKVX NSCLC) was 98.2 µM, the GI50 (PC-3 prostate) was 20.4 µM and the TGI (PC-3 prostate) was 49 µM. It also gave a GI50 (SNB-75 CNS) of 21.5 µM, a TGI (SNB-75 CNS) greater than 87.7 µM and a GI50 (OVCAR-3 ovarian) of 13.5 µM. It also gave a TGI (OVCAR-3 ovarian) of 31.2 µM, a GI50 (SK-MEL-28 melanoma) of 27.8 µM and a TGI (SK-MEL-28 melanoma) greater than 74.8 µM. It also gave a GI50 (HT29 colon) of 28.1 µM, a TGI (HT29 colon) greater than 100 µM and a GI50 (HL-60(TB) leukemia) of 0.0689 µM. It also gave a TGI (HL-60(TB) leukemia) of 16.3 µM, a GI50 (HOP-62 NSCLC) of 8.82 µM and a TGI (HOP-62 NSCLC) of 26.4 µM. For the same compound, the GI50 (OVCAR-4 ovarian) was 8.64 µM, the TGI (OVCAR-4 ovarian) was 59.1 µM and the GI50 (HCT-15 colon) was 5.68 µM. It also gave a TGI (HCT-15 colon) greater than 62.9 µM, a GI50 (HCT-116 colon) of 4.95 µM and a TGI (HCT-116 colon) of 27.6 µM. The GI50 (NCI-H226 lung) was 19 µM, the TGI (NCI-H226 lung) was 97.2 µM and the GI50 (IGROV1 ovarian) was 25.6 µM. The TGI (IGROV1 ovarian) was greater than 100 µM, the GI50 (SK-OV-3 ovarian) was 30 µM and the TGI (SK-OV-3 ovarian) was greater than 89.9 µM. It also gave a GI50 ([…]-0 renal) of 12.8 µM, a TGI (786-0 renal) of 31.8 µM and a GI50 (SF-295 CNS) of 14.3 µM. For the same compound, the TGI (SF-295 CNS) was greater than 81.6 µM, the GI50 (DU-145 prostate) was 14.6 µM and the TGI (DU-145 prostate) was 59.6 µM. The GI50 (MOLT-4 leukemia) was 11 µM, the TGI (MOLT-4 leukemia) was 23.2 µM and the GI50 (SNB-19 CNS) was 26.4 µM. For the same compound, the TGI (SNB-19 CNS) was greater than 90.1 µM, the GI50 (SR leukemia) was 0.0145 µM and the TGI (SR leukemia) was 0.0828 µM. For the same compound, the GI50 (K-562 leukemia) was 6.43 µM, the TGI (K-562 leukemia) was greater than 95.4 µM and the GI50 (MCF7 breast) was 3.21 µM. For the same compound, the TGI (MCF7 breast) was greater than 100 µM.
